Laboratory results published in US11274079B2 (DALIAN INSTITUTE OF CHEMICAL PHYSICS, CHINESE ACADEMY OF …, priority 2018, dated 2022).

What was measured:
guinea pigs = assay: Acetylcholine chloride/histamine spray-induced asthma, incubation period; format: in vivo, guinea pig; conditions: 0.2 mM in normal saline sprayed 10 min, challenge after 10 min, recorded as 240 s if no convulsion and fall
Procedure: On the first day, guinea pigs are placed in a 38×38×38 cm (about 55 L) of home-made container with an atomizing nozzle having a diameter of about 3 cm above the side wall. Ultrasonic atomizer (YUWELL, model 402AI) is used to spray normal saline containing acetylcholine chloride (20 g/L) and histamine (1 g/L) for 15 s. The incubation period of asthma of guinea pigs (also is called asthma incubation period, which is the time from the end of the spray to asthma attack, extreme breathing difficulty until convulsion and fall) is recorded after the cessation of spraying. Animals with an incubation period of less than 120 s are qualified sensitive animals.
2. Experimental Processes
On the second day, the qualified animals are selected for experiments, wherein one group (comprising 4 guinea pigs) is used as the control group, one group (comprising 4 guinea pigs) is experimented with positive medicine […] and one group (comprising 10 guinea pigs) is experimented with the drug to be tested. The animals are placed in a container, and sprayed with normal saline, tiotropium bromide and the compound to be tested. Both tiotropium bromide and the compound to be tested are soluble in normal saline at a concentration of 0.2 mM. After spraying for 10 min, the guinea pigs are taken out and put into another container of the same size. After 10 min, normal saline containing acetylcholine chloride (20 g/L) and histamine (1 g/L) is sprayed into the container for 15 s. The incubation periods of asthma of the guinea pigs are observed and recorded. If there is no convulsion and fall after 240 s, the incubation period is recorded as 240 s.

[1] = tested on: isolated tracheal smooth muscle; assay: Carbachol-induced contraction of isolated tracheal strip; conditions: Cavia porcellus, read-out: IC50, diastolic effect on isolated tracheal smooth muscle
Source text: 1. Experimental Materials
2. Preparation of Tracheal Strip
The guinea pig is put to death by hammering it on the head, the chest cavity is quickly opened, and trachea is carefully isolated. […] The connective tissue and fat around the trachea are gently removed, and the trachea segment is quickly suspended and cut into tracheal strips with a blade (2-3 mm in width and 20 mm in length). […] The upper end of the tracheal strip is connected to a muscle tension transducer, and the load is adjusted to 1.5 g. The biological signal processing system is used to record the changes in muscular tension of tracheal smooth muscle. The perfusate is replaced once every 15 min, and the experiment is started after the tension is stabilized for 1 h. After each experiment, the smooth muscle is rinsed 3 to 5 times, and the next experiment is carried out after stabilization to the baseline.
3. Effects of Compounds Tested on Contraction of Isolated Tracheal Strip in Guinea Pig
After incubation of isolated tracheal for 1 h, 10 μm/L of carbachol is added to induce the minimum concentration (the concentration obtained from the dose-effect curve of carbachol) of the maximum tracheal smooth muscle contraction, and the changes in tension of the tracheal strip within 5 min are recorded. When the tension of the tracheal smooth muscle reaches the highest point, the compounds tested with a concentration of 1 nm/L are added, and the changes in tension of the tracheal strip within 5 min are recorded. […] Then, the concentration difference is decreased, that is, the concentration is increased by three or four times to repeat the above administration, which makes the tension decrease continuously to the base value (initial load). The changes in tension of the tracheal stop within 5 min are recorded. The dose-effect relationship between the compounds tested and the contractile activity of the isolated tracheal smooth muscle in the guinea pig is obtained. The curve of the changes in tension of the tracheal smooth muscle in each group is recorded and the inhibition rate is calculated. After repeated experiments, IC50 value of each compound tested is calculated by taking points respectively.
The dose-effect relationship between solvent (DMSO) control group and the contractile activity of the isolated tracheal smooth muscle in the guinea pig is recorded. Inhibition Rate=(Tension before Administration−Tension after Administration)/Tension before Administration

M1 receptor = target: T1, M1 receptor (Homo sapiens, UniProt P11229); assay: DMR assay, antagonism of acetylcholine in CHO-K1 cells stably transfecting the M1 receptor; format: cell-based; conditions: CHO-K1-M1 cells, DMR, acetylcholine 1 μM, 1 h pretreatment, time point 5 min
T1 construct: expressed in transfected cells; host or cells: CHO-K1
T1 sequence (P11229 1-460): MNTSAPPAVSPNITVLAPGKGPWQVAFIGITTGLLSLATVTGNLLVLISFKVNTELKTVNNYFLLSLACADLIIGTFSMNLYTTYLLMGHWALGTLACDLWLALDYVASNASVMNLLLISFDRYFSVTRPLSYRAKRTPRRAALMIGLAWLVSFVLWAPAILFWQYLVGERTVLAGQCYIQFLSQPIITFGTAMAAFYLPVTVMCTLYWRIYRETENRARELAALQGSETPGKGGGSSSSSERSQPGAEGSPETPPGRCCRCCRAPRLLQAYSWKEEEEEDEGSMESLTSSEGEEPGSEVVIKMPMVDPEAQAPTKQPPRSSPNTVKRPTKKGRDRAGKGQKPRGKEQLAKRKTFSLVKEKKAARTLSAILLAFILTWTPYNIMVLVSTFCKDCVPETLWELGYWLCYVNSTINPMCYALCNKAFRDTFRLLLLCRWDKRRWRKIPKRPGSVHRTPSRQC
Procedure: (§1) The present invention relates to the antagonistic activity of the compound against the muscarinic receptor, which is primarily assessed by a cell-level dynamic mass redistribution (DMR) assay method. All tests are carried out on Epic platform, wherein the target model of the muscarinic receptor M1 is the CHO-K1 ceil model stably transfecting the M1 receptor, the target model of M3 is the HT-29 cell model endogenously highly expressing the M3 receptor, and the selected probe molecule is acetylcholine. Tire probe molecule acetylcholine is dissolved in water, while all other compounds are dissolved in DMSO.
(§2) The inoculated cell plate is placed in a cell incubator for culture for 12 h until the cell growth and fusion degree reaches about 95%, and the activity assay is carried out. The culture medium is sucked from the cultured ceils, the buffer salt specified by the test is added with a volume of 30 μL per orifice and is stabilized for 1 h. After the baseline is stable, a 2-min baseline is established, and different concentrations of compounds to be tested are added to test the cultured cells for 1 h. After the cells are pretreated with the compounds to be tested for 1 h, the 2-min baseline is re-established, and acetylcholine having a concentration of 1 μM is added to test the cultured cells for 1 h.

M3 receptor = target: T2, M3 receptor (Homo sapiens, UniProt P20309); assay: DMR assay, antagonism of acetylcholine in HT-29 cells endogenously expressing the M3 receptor; format: cell-based; conditions: HT-29 cells, DMR, acetylcholine 16 μM, 1 h pretreatment, time point 30 min
T2 construct: HT-29 cell model endogenously highly expressing the M3 receptor; endogenous in cells; host or cells: HT-29
Procedure: as §1
as §2, with “20” for “12”, “cells,” for “ceils,”, “h.” for “h. After the cells are pretreated with the compounds to be tested for 1 h, the 2-min baseline is re-established, and acetylcholine having a concentration of 1 μM is added to test the cultured cells for 1 h.”

T2 sequence (P20309 whole entry): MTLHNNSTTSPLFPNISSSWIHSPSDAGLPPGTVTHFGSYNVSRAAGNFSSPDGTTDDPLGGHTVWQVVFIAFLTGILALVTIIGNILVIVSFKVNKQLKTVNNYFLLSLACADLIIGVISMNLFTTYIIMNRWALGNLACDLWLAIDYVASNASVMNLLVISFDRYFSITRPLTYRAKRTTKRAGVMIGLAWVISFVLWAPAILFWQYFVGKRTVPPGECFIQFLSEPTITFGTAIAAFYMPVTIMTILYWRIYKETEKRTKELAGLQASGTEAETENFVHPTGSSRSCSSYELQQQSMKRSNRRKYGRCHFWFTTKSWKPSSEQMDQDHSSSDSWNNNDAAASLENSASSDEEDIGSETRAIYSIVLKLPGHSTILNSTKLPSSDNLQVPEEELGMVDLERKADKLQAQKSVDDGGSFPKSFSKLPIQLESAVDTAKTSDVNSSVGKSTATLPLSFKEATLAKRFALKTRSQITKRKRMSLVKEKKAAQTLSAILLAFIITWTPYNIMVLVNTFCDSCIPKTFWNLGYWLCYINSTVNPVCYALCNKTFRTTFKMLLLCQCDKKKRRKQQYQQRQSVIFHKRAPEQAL

Row | SMILES | asthma incubation period (guinea pigs) [s] | IC50 [1] [nM] | IC50 (M1 receptor) [nM] | IC50 (M3 receptor) [nM]
1 | C[N+]1(C)[C@@H]2C[C@@H](OC(=O)C(O)(c3cccs3)c3cccs3)C[C@H]1[C@@H]1O[C@@H]12.[Br-] [Tiotropium Bromide, reference compound] | 238.9 ± 5.0 | 33 | – | –
2 | Cc1ccc(O)c(C(CC2CCCC[N+]2(C)C)c2ccccc2F)c1 (centres unmarked) [I-7, 2-[2-(2-fluorophenyl)-2-(2-hydroxy-5-methyl-phenyl)-ethyl]-N,N-dimethylpiperidine Bromide] | – | 33.4 | 320 ± 20 | 103 ± 10
3 | Cc1ccc(O)c(C(CC2CCCC[N+]2(C)C)c2ccccc2)c1 (single isomer, unassigned) [I-4a-Br, 2-[2-(2-hydroxy-5-methyl-phenyl)-phenethyl]-N,N-dimethylpiperidine Bromide] | – | 13.3 | 36.2 ± 6.1 | 35.5 ± 13.9
4 | C[N+]1(C)CCCCC1CC(c1ccccc1O)c1ccccc1O (racemic) [I-3-Br, 2-[2,2-bis(2-hydroxy-phenyl)ethyl]-N,N-dimethylpiperidine Bromide] | – | 4.1 | 23.4 ± 6.6 | 15.4 ± 2.9
